Test results as given in publication PMC4140855, “Production of an Attenuated Phenol-Soluble Modulin Variant Unique to the MRSA Clonal Complex 30 Increases Severity of Bloodstream Infection” (PLoS Pathogens, 2014).

What was measured:
Format in all cases: cell-based
human neutrophils [1] = experiment: Human neutrophil chemotaxis / Ca2+ flux with FPR2 inhibited by FLIPr; conditions: FLIPr 0.5 µg/ml, 20 min pre-incubation at room temperature, three donors, quadruplicate; for Chemotaxis with addition of FPR2 blocking agent FLIPr, 100 nM peptide: peptide 100 nM
Protocol: (§1) Next, we analyzed Ca^2+ flux as a general measure to test for neutrophil activation, as used in previous studies. HL60 cells stably transfected with different FPR receptor genes were used to determine which FPR receptors are differentially activated by PSMα3 versus PSMα3N22Y (Fig. 4A). […] At a peptide concentration of 100 nM, we observed a difference of ∼factor 2 in chemotactic activity comparing the two peptides when FPR1 recognition was inhibited by CHIPS, likely attributable to FPR2-mediated recognition. Owing to the overall ∼10 times lower capacity to stimulate FPR receptors other than FPR2, we observed no chemotaxis at that peptide concentration with addition of the FPR2 blocking agent FLIPr.
(A) Differential activation of FPRs by PSMα3 versus PSMα3N22Y was measured using synthetic peptides and Ca^2+ flux observed in HL60 cells stably transfected with the corresponding FPR genes as readout, using three biological and two technical replicates. The calculated Kd values are shown on the right. […] (B) Ca^2+ flux in human neutrophils upon addition of PSMα3 or PSMα3N22Y and inhibition by FLIPr (FPR2 inhibitor) or CHIPS (FPR1 inhibitor). […]
(§2) Human neutrophils were isolated from venous blood of healthy donors as described, [39]. Neutrophil chemotaxis and Ca^2+ flux were determined as previously described, [24]. […] Chemotaxis of neutrophils was determined using a transwell system (Costar) with analysis of neutrophil migration using fluorescence labeling. Calcium fluxes were monitored as a surrogate marker for chemotaxis since it can be measured more robustly and accurately than chemotaxis. For measurement of Ca^2+ fluxes, 5×10^6 neutrophils/ml were labeled with a fluorescent dye and analyzed with a FACScalibur (Becton Dickinson) as described. […] Measurements of 2,000 events were performed and Ca^2+ flux was expressed as relative fluorescence corrected for buffer controls. […] At the desired times, PMN lysis was determined by release of lactate dehydrogenase (LDH) (Cytotoxicity Detection Kit, Roche Applied Sciences).

human neutrophils [2] = experiment: PMN lysis (LDH release); conditions: 37°C, 1 h; for PMN lysis at high concentration: synthetic peptides at 10 µg/ml or higher
Protocol: (§3) Figure 5 PSMα3N22Y has diminished cytolytic activities. (A) PMN lysis of synthetic PSMα3N22Y versus PSMα3. Data are from 2 donors, measured in triplicate each after incubation at 37°C for 1 h. […] (B) Hemolysis of synthetic PSMα3N22Y versus PSMα3. Data are from 2 donors, measured in triplicate, after incubation at 37°C for 1 h. (C, D) PMN lysis and hemolysis, respectively, of culture filtrates from PSMα3N22Y- versus PSMα3-producing strains when expressed on plasmids. pTXΔ16 is the empty control vector. The background strain in all constructs is a PSM-free USA300 strain (LACΔpsmαΔpsmβΔhld). Culture filtrates were diluted 1∶20 for the PMN lysis and 1∶2 for the hemolysis measurements. PMN lysis results are from two and hemolysis data from one donor, with three replicates measured each. (E) PMN lysis of culture filtrates from MRSA252 (252) versus 252*, in which the psmα3 gene (expressing PSMα3N22Y) on the genome was changed to express PSMα3 as present in all non-CC30 strains. […] Culture filtrates were diluted 1∶10. *, p<0.05 (paired t-test). (F) Hemolysis of culture filtrates from the same strains as in (E) at different dilutions. (A–F), *, p<0.05; **, p<0.01; ***, p<0.001; ****, p<0.0001. […]
as §2

FPR2 = biological target: T1, FPR2 (Homo sapiens, UniProt P25090); experiment: Ca2+ flux in HL60 cells stably transfected with FPR2; conditions: for Activation of FPR2 relative to FPR1 and FPR3: both peptides
T1 construct: expressed in transfected cells; host or cells: HL60 cells, stably transfected
T1 sequence (P25090 1-351): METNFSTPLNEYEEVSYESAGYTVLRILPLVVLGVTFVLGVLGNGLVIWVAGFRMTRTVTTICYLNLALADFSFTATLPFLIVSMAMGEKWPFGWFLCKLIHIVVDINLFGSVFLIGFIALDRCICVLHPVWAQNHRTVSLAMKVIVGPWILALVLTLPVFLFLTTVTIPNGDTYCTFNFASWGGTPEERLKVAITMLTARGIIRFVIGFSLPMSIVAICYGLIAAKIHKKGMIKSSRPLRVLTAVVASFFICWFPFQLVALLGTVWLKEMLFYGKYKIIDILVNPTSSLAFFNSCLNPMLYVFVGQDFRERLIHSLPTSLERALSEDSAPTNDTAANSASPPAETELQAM
Protocol: as §1
(A) Differential activation of FPRs by PSMα3 versus PSMα3N22Y was measured using synthetic peptides and Ca^2+ flux observed in HL60 cells stably transfected with the corresponding FPR genes as readout, using three biological and two technical replicates. The calculated Kd values are shown on the right. […] (B) Ca^2+ flux in human neutrophils upon addition of PSMα3 or PSMα3N22Y and inhibition by FLIPr (FPR2 inhibitor) or CHIPS (FPR1 inhibitor). Neutrophils were from three donors and the measurements were performed in quadruplicate. *, p<0.05; **, p<0.01; ***, p<0.001; ****, p<0.0001 (comparing values obtained with PSMα3 versus corresponding values obtained with PSMα3N22Y). TEXT PRINTED IN THE PICTURE: (A) PSMα3: Kd (nM): FPR1: 615.6 ± 101.2; Kd (nM): FPR2: 11.90 ± 1.90; Kd (nM): FPR3: 1377 ± 285 | (A) PSMα3 N22Y: Kd (nM): FPR1: 3039 ± 682; Kd (nM): FPR2: 10.81 ± 2.38; Kd (nM): FPR3: 953.0 ± 253.9
Synthetic PSM peptides were obtained from commercial vendors at a purity of >95%. They all carry the N-terminal N-formyl methionine as common for PSMs, which are secreted into the medium without a signal peptide. […]
as §2

human erythrocytes = experiment: Hemolysis; conditions: synthetic peptides, 37°C, 1 h, 2% erythrocytes, OD 540 nm; 2 donors, triplicate; compared to PSMα3N22Y
Protocol: as §3, with “t-test).” for “t-test). (F) Hemolysis of culture filtrates from the same strains as in (E) at different dilutions. (A–F), *, p<0.05; **, p<0.01; ***, p<0.001; ****, p<0.0001.”
Hemolysis assays were performed according to Wang et al. Briefly, whole blood from humans was washed twice with ice-cold DPBS. […] After incubation at 37°C for 1 h, the plates were centrifuged at 233×g at 4°C for 5 min, supernatants were collected, and the optical density was measured at 540 nm.

[3] = Ca2+ flux, transfected HL60 cells

SMILES	Chemotaxis with addition of FPR2 blocking agent FLIPr, 100 nM peptide (human neutrophils [1])	Difference in chemotactic potential between the two peptides with FPR2 blocked, 1 µM peptide (human neutrophils [1]; peptide 1 µM)	PMN lysis at high concentration (human neutrophils [2])	FPR2-activating potential, PSMα3 versus PSMα3N22Y (FPR2; [3])	Activation of FPR2 relative to FPR1 and FPR3 (FPR2; [3])	Kd (FPR2; one site-binding model from Ca2+ flux, synthetic peptides, FPR2-transfected HL60 cells, three biological and two technical replicates, error = standard deviation) [nM]	Cytolytic capacity toward human neutrophils (human neutrophils [2]; synthetic peptides, LDH release, 2 donors, triplicate, compared to PSMα3N22Y)	Cytolytic capacity toward human erythrocytes (human erythrocytes)
CSCC[C@H](NC=O)C(=O)N[C@@H](CCC(=O)O)C(=O)N[C@@H](Cc1ccccc1)C(=O)N[C@H](C(=O)N[C@@H](C)C(=O)N[C@@H](CCCCN)C(=O)N[C@@H](CC(C)C)C(=O)N[C@@H](Cc1ccccc1)C(=O)N[C@@H](CCCCN)C(=O)N[C@@H](Cc1ccccc1)C(=O)N[C@@H](Cc1ccccc1)C(=O)N[C@@H](CCCCN)C(=O)N[C@@H](CC(=O)O)C(=O)N[C@@H](CC(C)C)C(=O)N[C@@H](CC(C)C)C(=O)NCC(=O)N[C@@H](CCCCN)C(=O)N[C@@H](Cc1ccccc1)C(=O)N[C@@H](CC(C)C)C(=O)NCC(=O)N[C@@H](CC(N)=O)C(=O)N[C@@H](Cc1ccc(O)cc1)C(=O)O)C(C)C [PSMα3N22Y]	no chemotaxis	very strong difference in chemotactic potential	completely lysed the neutrophils	no difference in the FPR2-activating potential	activated FPR2 much stronger than FPR1 and FPR3	10.8 ± 2.38		
CSCC[C@H](NC=O)C(=O)N[C@@H](CCC(=O)O)C(=O)N[C@@H](Cc1ccccc1)C(=O)N[C@H](C(=O)N[C@@H](C)C(=O)N[C@@H](CCCCN)C(=O)N[C@@H](CC(C)C)C(=O)N[C@@H](Cc1ccccc1)C(=O)N[C@@H](CCCCN)C(=O)N[C@@H](Cc1ccccc1)C(=O)N[C@@H](Cc1ccccc1)C(=O)N[C@@H](CCCCN)C(=O)N[C@@H](CC(=O)O)C(=O)N[C@@H](CC(C)C)C(=O)N[C@@H](CC(C)C)C(=O)NCC(=O)N[C@@H](CCCCN)C(=O)N[C@@H](Cc1ccccc1)C(=O)N[C@@H](CC(C)C)C(=O)NCC(=O)N[C@@H](CC(N)=O)C(=O)N[C@@H](CC(N)=O)C(=O)O)C(C)C [PSMα3]	no chemotaxis		completely lysed the neutrophils		activated FPR2 much stronger than FPR1 and FPR3		significantly higher cytolytic capacities	significantly higher cytolytic capacities
